According to patent US9822373B2, “Mutant cells for protein secretion and lignocellulose degradation” (The Regents of the University of California, priority 2011, dated 2017):

Tests used:
[1] = test system: Neurospora crassa; assay: Total Avicelase activity of bioreactor culture supernatant; assay type: cell-based; conditions: supernatant of the 24-hour induction time point
Protocol: Cellulase production was carried out in a 3.7 L bioreactor (BioEngineering AG) at an operating volume of 1 L. The bioreactor was equipped with one 48 mm Rushton impeller and four equally spaced baffles to provide adequate mixing. Impeller speed was controlled at 200 rpm for 8 hours to allow spore germination followed by 500 rpm for the remainder of the experiment. The temperature was maintained at 25° C., and medium pH was controlled at 5.5 using 40% phosphoric acid and 1:5 diluted ammonium hydroxide. The dissolved oxygen was maintained at a level greater than 20% of the saturation value of the medium by varying the aeration rate between 0.5 and 3 VVM in response to the dissolved oxygen tension. Minimal growth medium with 1% w/v sucrose as the sole carbon source (unless otherwise noted) was inoculated with 10^9 conidia. After 24 hours initial growth, cellulase production was induced with either cellobiose or Avicel® added to a final concentration of 0.2% w/v. […]
Sucrose, fructose, glucose and cellobiose were measured on a DIONEX ICS-3000 HPLC (Dionex Corp., Sunnyvale, Calif.) using a CarboPac PA20 Analytical Column (3×150 mm) and a CarboPac PA20 guard column (3×30 mm) at 30° C. […] Sugars were detected using PAD, Four-Potential Carbohydrate Waveform and Peaks were analyzed using the Chromeleon software package.

[2] = test system: Neurospora crassa; assay: Avicel hydrolysis assay with shake flask culture supernatants; assay type: cell-based
Protocol: Cultures were grown in 1% sucrose for 24 hours followed by the addition of 2% sucrose or 0.2% cellobiose. Supernatant was harvested after 24 (WT, Δ3βG and Δ3βGΔcre) or 72 hours (Δ3βG). The WT Avicel® culture was grown for 5 days on 2% Avicel®, Δ3βG was grown in 1% sucrose for 24 hours followed by 48 hours in 1% Avicel® and Δ3βGΔcre was grown in 1% sucrose for 24 hours followed by 24 hours in 1% Avicel®.
Total Avicelase activity was conducted in 250 mL media bottles incubated at 50° C. on a orbital shaker at 200 rpm. Each bottle contained 1% cellulose (Avicel®) and 50 mM (pH 5.0) sodium acetate in a working volume of 50 mL. Tetracycline (10 μg/mL) was added to prevent microbial contamination. Bioreactor culture broth samples were buffer exchanged using a 10 kDa MWCO centrifugal filter to remove any soluble sugars prior to initiating hydrolysis experiments. After pre-incubating the hydrolysis mixture to 50° C., enzyme was added (1 mL filtered culture broth). Samples were taken every 4 hours for the first 12 hours and then every 12 hours thereafter for a total of 48 hours. Hydrolysis experiments were performed in triplicate.
Sucrose, fructose, glucose and cellobiose were measured on a DIONEX ICS-3000 HPLC (Dionex Corp., Sunnyvale, Calif.) using a CarboPac PA20 Analytical Column (3×150 mm) and a CarboPac PA20 guard column (3×30 mm) at 30° C. Following injection of 25 μl of diluted samples, elution was performed with 100 mM KOH (isocratic) at 0.4 ml/min. Sugars were detected using PAD, Four-Potential Carbohydrate Waveform and Peaks were analyzed using the Chromeleon software package.

[3] = test system: NCU07760 (gh61-2); assay: mRNA sequencing (RNA-Seq), transcript abundance of gh61-2; assay type: cell-based, Neurospora crassa; conditions: Δ3βG mutant; 4 hours after transfer to 0.2% cellobiose
Protocol: Conidia from strains were inoculated at an OD595 equal to 0.05 in 50 ml Vogel's salts (45) with 2% w/v sucrose in a 250 ml Erlenmeyer flask and grown under constant light at 200 rpm for 16 hours. Biomass was then spun at 4200 rpm for 10 minutes and washed in Vogel's salts twice to remove any excess sucrose. Biomass was then added to a new flask containing 50 ml Vogel's salts supplemented with 1% w/v sucrose, 0.2% w/v cellobiose (Sigma) or 1% w/v Avicel® PH 101 (Sigma). Cultures were induced for 4 hrs under constant light at 200 rpm. The culture biomass was then harvested by filtration over a Whatman glass microfiber filter (GF/F) on a Buchner funnel and washed with 50 ml Vogel's salts. The biomass was flash frozen in liquid nitrogen and stored at −80° C. Three independent biological duplicates (flasks) were evaluated for each time point.
Total RNA from frozen samples was isolated using Zirconia/Silica beads (0.5 mm diameter; Biospec) and a Mini-Beadbeater-96 (Biospec) with 1 mL TRIzol reagent (Invitrogen) according to the manufacturer's instructions. […]
mRNA sequencing was performed using an Illumina kit (RS-100-0801) with isolated RNA. The final cDNA library was quantified by an Agilent bioanalyzer 2000 and sequenced using an Illumina Genome Analyzer-II using standard Illumina operating procedures. […]

[4] = test system: Neurospora crassa; assay: Secreted protein concentration in shake flask culture supernatant; assay type: cell-based; conditions: Δcre-1; time not stated
Protocol: Strains were inoculated at an OD595 equal to 0.05 in 100 ml Vogel's salts with 1% (wt/vol) sucrose in a 250 ml Erlenmeyer flask and grown under constant light at 200 rpm for 24 hours. Cultures were then induced with 2% sucrose, 2% cellobiose, 1% sucrose/1% cellobiose, or 1% sucrose/1% Avicel®. Cultures continued to grow under constant light at 200 rpm for 5 days with supernatant collected at 1, 2, 3, 4 and 5 day. The collected supernatant was filtered through a 0.2 μm PES filter to remove biomass before being stored at −20° C. until all samples were collected. To visualize the secreted proteins, 15 μl of unconcentrated supernatant was run on a Criterion 10% Tris-HCL polyacrylamide gel and stained with Thermo Scientific GelCode Blue Stain Reagent.

O=C[C@H](O)[C@@H](O)[C@H](O[C@@H]1O[C@H](CO)[C@@H](O)[C@H](O)[C@H]1O)[C@H](O)CO [cellobiose]
aggregate Avicelase activity, glucose equivalents ([1]; Δ3βG strain): 0.296 mg/mL | aggregate Avicelase activity, glucose equivalents ([1]; Δ3βGΔcre strain): 0.424 mg/mL | hydrolysis of crystalline cellulose by culture supernatant ([2]; WT cultures grown on or induced with the substance): did not | hydrolysis of crystalline cellulose by culture supernatant ([2]; Δ3βG cultures grown on or induced with the substance): hydrolyzed crystalline cellulose | hydrolysis of crystalline cellulose by culture supernatant ([2]; Δ3βGΔcre cultures grown on or induced with the substance): hydrolyzed crystalline cellulose | FPKM of NCU07760 (gh61-2) [3]: 538 FPKM | cellulase secretion (secreted protein) [4]: 653 µg/mL
